Reference: patent US10101324B2, “Non-competitive immunoassays to detect small molecules using nanopeptamers” (priority 2012, dated 2018)

Assays:
MoAb 14D7 = details: molinate; same antibody MoAb 14D7; Rufo et al. 2004; cited from earlier work
[1] = system: anti-molinate monoclonal antibody (MoAb 14D7); experiment: Cross-reactivity of the pA-Nanopeptamer noncompetitive ELISA with related thiocarbamate pesticides; assay type: binding
MoAb 5.6 = details: clomazone, Carlomagno et al. 2010; cited from earlier work

SMILES	Cross reactivity, pA-Nanopeptamer assay [1]	further results
CCSC(=O)N1CCCCCC1 [Molinate]		IC50 of the competitive ELISA (MoAb 14D7): 69 ± 0.5 ng/mL
CCCCN(CC)C(=O)SCCC [Pebulate]	6%	
CC1(C)CON(Cc2ccccc2Cl)C1=O [clomazone]		IC50 of the competitive format (MoAb 5.6): 28 ± 1.1 ng/mL
CCN(CC)C(=O)SCc1ccc(Cl)cc1 [thiobencarb]	0%	
